The values that follow come from ChEMBL document CHEMBL1201862, “PubChem BioAssay data set” (2004).

Active and inactive are the calls of the source. A value given as a limit tells only on which side of the number the result lay.

For assay [1], the target named is T1, Bcl-2-related protein A1 (Mus musculus, UniProt Q07440).
T1 sequence (Q07440 whole entry): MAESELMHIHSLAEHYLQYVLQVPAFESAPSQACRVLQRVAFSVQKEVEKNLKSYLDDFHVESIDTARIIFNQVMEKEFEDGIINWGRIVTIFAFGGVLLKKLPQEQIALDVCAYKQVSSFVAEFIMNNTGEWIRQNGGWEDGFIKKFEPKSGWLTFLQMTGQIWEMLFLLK
Put plainly: small-molecule antagonists of Bfl-1/BH3 interaction – biochemical, TR-FRET, mouse Bfl-1, confirmation (AID 621).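 Further: TR-FRET binding of GST-Bfl-1 to FITC-labelled Bid peptide via terbium antibody.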

For assay [2], the target named is T1, Bcl-2-related protein A1. Briefly: Bfl-1 binding inhibitors, SAR follow-up, biochemical, fluorescence polarization (AID 1070). (Fluorescence polarisation rises when a labelled molecule tumbles more slowly, as on binding a larger partner.)
In assay [3] the target is Neuropeptide Y receptor type 2 (Homo sapiens, UniProt P49146). Put plainly: Fluorescence-based cell-based high-throughput dose response assay for agonists of NPY-Y2. [Related pubchem assays: 1703 (Screening assay (CNGC inhibitors).), 1359 (Screening assay (NPY-Y2 potentiators or agonists).), 1304 (Screening assay (NPY-Y1 potentiators or agonists).), 1710 (Screening assay (NPY-Y2 agonists).), 1791 (Summary AID.)]. Format: functional.
Neuropeptide Y receptor type 2, sequence (P49146 whole entry): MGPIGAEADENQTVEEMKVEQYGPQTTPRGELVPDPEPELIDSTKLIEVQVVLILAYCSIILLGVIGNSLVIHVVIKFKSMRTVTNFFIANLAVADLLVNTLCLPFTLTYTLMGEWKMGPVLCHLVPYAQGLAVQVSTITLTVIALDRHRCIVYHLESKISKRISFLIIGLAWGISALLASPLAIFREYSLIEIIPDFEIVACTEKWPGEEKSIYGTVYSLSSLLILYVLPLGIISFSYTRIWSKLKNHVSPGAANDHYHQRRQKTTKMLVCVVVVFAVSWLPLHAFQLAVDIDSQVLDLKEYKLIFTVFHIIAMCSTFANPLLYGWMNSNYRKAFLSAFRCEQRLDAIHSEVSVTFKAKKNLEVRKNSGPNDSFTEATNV

The test system of assay [4] is HEK293. Put plainly: Fluorescence-based counterscreen for potentiators or agonists of NPY-Y2: cell-based high-throughput dose response assay to identify inhibitors of cyclic nucleotide gated ion channel (CNGC) activity. In this assay, the parental HEK293 cell line transfected with a cyclic-nucleotide gated ion channel (CNGC)-based cAMP sensor is used to measure inhibition of isoproterenol-induced CNGC activity by test compound. The assay is classed as functional. The following applies: Homo sapiens.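 Further: stimulus is 1 µM isoproterenol at EC100 plus PDE inhibitor Ro 20-1724 at 25 µM.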

Assay [5] has as its target Neuropeptide Y receptor type 1 (Homo sapiens, UniProt P25929). Briefly: Fluorescence-based counterscreen for agonists of NPY-Y2: cell-based high-throughput dose response assay for agonists of NPY-Y1. The assay is classed as functional. For orientation: The purpose of a counterscreen is to sort out artefacts and off-target activity.
Assay [6] has as its system Vero. Put plainly: viability of Vero cells under compound – cytotoxicity control for flavivirus capping enzyme inhibitors (AID 588742). Conditions: Chlorocebus sabaeus. The assay is classed as functional.
Assay [7] has as its target Oxytocin receptor (Homo sapiens, UniProt P30559). Briefly: Fluorescence-based cell-based high throughput dose response assay for agonists of the Oxytocin Receptor (OXTR). [Related pubchem assays: 2435 (Primary screen (OXTR agonists in singlicate)), 434991 (Counterscreen (V1R agonists in triplicate)), 2482 (Summary (OXTR agonists)), 434963 (Confirmation screen (OXTR agonists in triplicate))]. Format: functional.

The target in assay [8] is Vasopressin V1a receptor (Homo sapiens, UniProt P37288). Put plainly: Counterscreen for Oxytocin Receptor (OXTR) agonists: Fluorescence-based cell-based high throughput dose response assay to identify agonists of the vasopressin 1 receptor (V1R). [Related pubchem assays: 2435 (Primary screen (OXTR agonists in singlicate)), 434991 (Counterscreen (V1R agonists in triplicate)), 2482 (Summary (OXTR agonists)) …. Format: functional.
Vasopressin V1a receptor, sequence (P37288 whole entry): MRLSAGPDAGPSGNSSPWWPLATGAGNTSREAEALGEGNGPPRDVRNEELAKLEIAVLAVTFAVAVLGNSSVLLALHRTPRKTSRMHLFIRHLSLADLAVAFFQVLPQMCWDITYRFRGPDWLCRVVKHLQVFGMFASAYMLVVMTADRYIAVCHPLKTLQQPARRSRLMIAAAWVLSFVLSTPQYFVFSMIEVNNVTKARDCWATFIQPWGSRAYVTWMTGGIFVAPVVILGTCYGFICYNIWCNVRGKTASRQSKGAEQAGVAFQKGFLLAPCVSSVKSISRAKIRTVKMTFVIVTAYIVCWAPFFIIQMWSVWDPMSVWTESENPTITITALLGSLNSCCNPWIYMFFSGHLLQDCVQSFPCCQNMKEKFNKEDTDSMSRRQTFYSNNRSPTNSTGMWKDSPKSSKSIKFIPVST

Assay [9] can be described thus: antiviral protection against BTV-induced cell death – arbovirus, BSR cells, confirmation (AID 1250).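 Further: protection from viral cytopathic effect measured as cell viability by ATP luminescence.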 Format: functional.
Assay [10] has as its target T2, Cytochrome P450 2C19 (Homo sapiens, UniProt P33261). Briefly: qHTS Assay for Inhibitors and Substrates of Cytochrome P450 2C19. [Related pubchem assays: 410 ]. Format: ADME. Conditions: read-out: Potency. On the technique in general: In qHTS, concentration-response curves come from the screen itself.
Assay [11] relates to Streptococcus. Put plainly: GAS UMAA2166 growth inhibition – luminescence, BacTiterGlo, counter-screen for streptokinase expression inhibitor project, dose response (AID 1915).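 Further: potency for reduction of bacterial viability or growth.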 The assay is classed as functional, organism-based. Conditions: Streptococcus.
Assay [12] concerns the target T3, Cytochrome P450 3A4 (Homo sapiens, UniProt P08684). Conditions: Potency.
Assay [13] has as its target Voltage-gated inwardly rectifying potassium channel KCNH2 (Homo sapiens, UniProt Q12809). Conditions: Potency.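 Further: confirmatory quantitative high-throughput screen measuring inhibition of hERG channel activity.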
The target in assay [14] is T2, Cytochrome P450 2C19. Put plainly: Cytochrome panel assay with activity outcomes. Panel member name: p450-cyp2c19 Compounds with AC50 equal or less than 10 uM are considered active. The following applies: read-out: AC50. Format: functional.
The target of assay [15] is T3, Cytochrome P450 3A4.
Assay [16] has as its target T4, Streptokinase A (Streptococcus pyogenes serotype M1, UniProt P10520).
T4 sequence (P10520 whole entry): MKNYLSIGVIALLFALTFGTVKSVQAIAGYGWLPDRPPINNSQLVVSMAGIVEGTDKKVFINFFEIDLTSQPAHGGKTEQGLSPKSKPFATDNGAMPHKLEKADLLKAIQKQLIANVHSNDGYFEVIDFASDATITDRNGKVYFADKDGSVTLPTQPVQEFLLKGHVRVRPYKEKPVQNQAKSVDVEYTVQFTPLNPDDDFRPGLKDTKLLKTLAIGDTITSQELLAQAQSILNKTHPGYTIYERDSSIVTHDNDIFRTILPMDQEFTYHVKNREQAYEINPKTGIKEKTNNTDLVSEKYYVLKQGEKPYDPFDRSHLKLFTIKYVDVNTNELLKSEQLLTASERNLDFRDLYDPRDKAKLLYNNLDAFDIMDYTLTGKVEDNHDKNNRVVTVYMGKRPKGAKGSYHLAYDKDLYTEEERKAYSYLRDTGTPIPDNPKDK
Put plainly: viability-normalized secreted streptokinase activity reduction – plasminogen activation absorbance, OD405, dose response (AID 1914).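 Further: secreted streptokinase activity via plasminogen activation per viability signal from cell pellet.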 Format: functional, Streptococcus pyogenes M1 GAS.

Assay [17] relates to Streptococcus sp. 'group A'. Put plainly: Streptococcus pyogenes SK(-)GAS viability under kanamycin – luminescence, BacTiterGlo, confirmation, counter-screen for streptokinase expression inhibitor project, dose response (AID 1900). Format: functional, organism-based. Conditions: Streptococcus sp. 'group A'.
For assay [18], the target named is Mothers against decapentaplegic homolog 3 (Homo sapiens, UniProt P84022). Put plainly: blockers of Smad3 complex formation in lysate – cell lysate, secondary confirmation, chemiluminescent ELISA, HEK293 lysate, dose response (AID 1058). The assay is classed as functional.
The nature of assay [19]: microbe, parasite or virus in culture. Conditions: Mycobacterium tuberculosis. The assay is classed as functional.
Assay [20] can be described thus: A High Throughput Confirmatory Assay used to Identify Novel Compounds that Inhibit Mycobacterium Tuberculosis in the absence of Glycerol. Format: functional.
Assay [21] has as its target T5, Fatty acid synthase (Homo sapiens, UniProt P49327). Briefly: inhibition of human FAS-TE enzyme activity – biochemical, kinetic fluorescence intensity, dose response (AID 624326).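 Further: rate of fluorescence rise from hydrolysis of a fluorogenic O-methyl fluorescein ester substrate.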 Format: functional.
Assay [22] addresses T5, Fatty acid synthase. Briefly: inhibition of human FAS-TE enzyme activity – biochemical, endpoint fluorescence intensity, uHTS hits, dose response (AID 624327).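 Further: fluorescence from hydrolysis of an O-methyl fluorescein acyl ester substrate by the enzyme.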 The assay is classed as functional.

T2 sequence (P33261 whole entry): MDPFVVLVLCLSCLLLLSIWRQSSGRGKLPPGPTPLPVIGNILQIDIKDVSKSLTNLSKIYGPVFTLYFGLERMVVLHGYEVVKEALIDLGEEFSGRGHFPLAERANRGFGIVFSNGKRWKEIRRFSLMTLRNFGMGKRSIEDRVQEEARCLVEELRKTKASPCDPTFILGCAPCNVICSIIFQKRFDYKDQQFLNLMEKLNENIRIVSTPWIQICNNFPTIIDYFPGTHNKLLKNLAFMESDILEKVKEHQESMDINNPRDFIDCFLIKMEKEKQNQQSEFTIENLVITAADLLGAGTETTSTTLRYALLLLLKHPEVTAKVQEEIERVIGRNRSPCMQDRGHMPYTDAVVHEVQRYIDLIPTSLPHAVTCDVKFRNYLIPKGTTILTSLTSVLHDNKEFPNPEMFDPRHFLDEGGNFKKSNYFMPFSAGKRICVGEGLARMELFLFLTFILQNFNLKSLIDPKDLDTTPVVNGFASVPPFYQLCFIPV
T5 sequence (P49327 whole entry): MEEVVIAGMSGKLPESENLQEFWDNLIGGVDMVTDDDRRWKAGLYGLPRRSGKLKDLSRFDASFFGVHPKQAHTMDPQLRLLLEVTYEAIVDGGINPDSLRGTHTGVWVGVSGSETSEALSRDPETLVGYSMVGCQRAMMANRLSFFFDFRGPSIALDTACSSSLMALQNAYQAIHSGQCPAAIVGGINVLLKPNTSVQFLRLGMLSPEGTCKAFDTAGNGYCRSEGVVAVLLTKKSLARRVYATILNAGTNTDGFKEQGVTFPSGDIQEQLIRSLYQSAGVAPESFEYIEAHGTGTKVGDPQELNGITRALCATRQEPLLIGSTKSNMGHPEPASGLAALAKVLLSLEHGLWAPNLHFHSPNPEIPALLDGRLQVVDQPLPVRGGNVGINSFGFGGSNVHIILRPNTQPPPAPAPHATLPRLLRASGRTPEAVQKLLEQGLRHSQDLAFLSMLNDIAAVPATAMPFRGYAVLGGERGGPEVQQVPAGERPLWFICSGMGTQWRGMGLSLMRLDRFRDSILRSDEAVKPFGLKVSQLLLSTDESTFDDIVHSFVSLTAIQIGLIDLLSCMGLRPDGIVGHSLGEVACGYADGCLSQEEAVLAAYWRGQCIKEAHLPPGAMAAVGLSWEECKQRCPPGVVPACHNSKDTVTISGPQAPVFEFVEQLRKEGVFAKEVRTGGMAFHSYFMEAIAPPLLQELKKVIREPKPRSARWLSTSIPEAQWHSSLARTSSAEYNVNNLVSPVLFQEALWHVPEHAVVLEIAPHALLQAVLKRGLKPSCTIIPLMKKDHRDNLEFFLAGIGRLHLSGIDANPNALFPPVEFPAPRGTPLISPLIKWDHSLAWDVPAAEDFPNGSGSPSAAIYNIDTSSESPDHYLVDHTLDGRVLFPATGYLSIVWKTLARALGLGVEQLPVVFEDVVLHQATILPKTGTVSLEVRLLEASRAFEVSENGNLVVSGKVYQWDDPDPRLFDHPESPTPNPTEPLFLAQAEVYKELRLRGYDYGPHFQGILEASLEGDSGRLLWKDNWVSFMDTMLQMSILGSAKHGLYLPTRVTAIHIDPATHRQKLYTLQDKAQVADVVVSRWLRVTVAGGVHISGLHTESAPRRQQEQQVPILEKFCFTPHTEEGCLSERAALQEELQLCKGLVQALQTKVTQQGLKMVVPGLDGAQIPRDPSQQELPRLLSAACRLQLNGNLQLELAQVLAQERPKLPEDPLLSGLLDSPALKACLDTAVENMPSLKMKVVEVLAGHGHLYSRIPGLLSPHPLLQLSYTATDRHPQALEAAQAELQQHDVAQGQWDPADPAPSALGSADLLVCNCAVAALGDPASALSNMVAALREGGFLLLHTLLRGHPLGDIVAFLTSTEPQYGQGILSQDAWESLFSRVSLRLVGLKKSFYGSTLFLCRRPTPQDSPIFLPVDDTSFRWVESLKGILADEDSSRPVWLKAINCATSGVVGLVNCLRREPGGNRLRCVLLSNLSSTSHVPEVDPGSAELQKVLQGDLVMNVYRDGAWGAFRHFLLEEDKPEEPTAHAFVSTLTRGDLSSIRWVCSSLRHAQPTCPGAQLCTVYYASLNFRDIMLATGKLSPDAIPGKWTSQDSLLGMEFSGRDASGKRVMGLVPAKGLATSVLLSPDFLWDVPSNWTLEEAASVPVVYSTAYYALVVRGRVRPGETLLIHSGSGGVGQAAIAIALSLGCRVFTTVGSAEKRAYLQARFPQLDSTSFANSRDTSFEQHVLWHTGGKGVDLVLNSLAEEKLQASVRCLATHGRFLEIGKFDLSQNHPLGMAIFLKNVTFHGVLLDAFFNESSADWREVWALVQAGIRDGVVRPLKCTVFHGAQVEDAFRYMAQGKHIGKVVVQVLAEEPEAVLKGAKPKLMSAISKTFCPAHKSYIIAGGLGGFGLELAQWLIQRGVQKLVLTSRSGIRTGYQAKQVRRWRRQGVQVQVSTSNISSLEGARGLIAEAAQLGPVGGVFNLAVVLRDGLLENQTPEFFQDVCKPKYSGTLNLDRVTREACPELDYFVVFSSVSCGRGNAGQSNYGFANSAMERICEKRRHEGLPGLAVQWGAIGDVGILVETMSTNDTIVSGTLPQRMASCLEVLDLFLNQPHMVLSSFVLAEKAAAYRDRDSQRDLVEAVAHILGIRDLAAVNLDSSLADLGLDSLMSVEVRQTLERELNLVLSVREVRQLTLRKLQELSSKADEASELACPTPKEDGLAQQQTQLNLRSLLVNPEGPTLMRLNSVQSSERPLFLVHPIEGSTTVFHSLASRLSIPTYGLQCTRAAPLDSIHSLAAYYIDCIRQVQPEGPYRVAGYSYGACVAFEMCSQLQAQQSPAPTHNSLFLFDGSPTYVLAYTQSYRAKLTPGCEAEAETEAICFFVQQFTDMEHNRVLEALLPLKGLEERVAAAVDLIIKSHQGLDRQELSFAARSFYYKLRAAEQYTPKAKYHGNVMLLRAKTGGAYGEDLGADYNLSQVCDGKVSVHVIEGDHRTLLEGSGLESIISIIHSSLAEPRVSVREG
T3 sequence (P08684 whole entry): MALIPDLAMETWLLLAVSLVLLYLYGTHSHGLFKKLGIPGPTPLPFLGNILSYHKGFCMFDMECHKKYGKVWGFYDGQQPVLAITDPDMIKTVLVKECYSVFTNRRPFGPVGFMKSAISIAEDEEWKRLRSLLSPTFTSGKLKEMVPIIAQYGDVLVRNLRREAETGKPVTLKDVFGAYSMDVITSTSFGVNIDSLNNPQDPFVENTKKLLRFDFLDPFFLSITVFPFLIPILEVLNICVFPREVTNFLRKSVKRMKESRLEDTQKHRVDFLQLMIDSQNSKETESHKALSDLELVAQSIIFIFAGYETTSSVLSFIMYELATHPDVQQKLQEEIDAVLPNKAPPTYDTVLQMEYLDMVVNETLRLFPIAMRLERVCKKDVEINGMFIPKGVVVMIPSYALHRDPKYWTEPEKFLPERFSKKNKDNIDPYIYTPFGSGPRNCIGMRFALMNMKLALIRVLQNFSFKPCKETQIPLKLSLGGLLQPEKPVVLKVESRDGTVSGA
Neuropeptide Y receptor type 1, sequence (P25929 whole entry): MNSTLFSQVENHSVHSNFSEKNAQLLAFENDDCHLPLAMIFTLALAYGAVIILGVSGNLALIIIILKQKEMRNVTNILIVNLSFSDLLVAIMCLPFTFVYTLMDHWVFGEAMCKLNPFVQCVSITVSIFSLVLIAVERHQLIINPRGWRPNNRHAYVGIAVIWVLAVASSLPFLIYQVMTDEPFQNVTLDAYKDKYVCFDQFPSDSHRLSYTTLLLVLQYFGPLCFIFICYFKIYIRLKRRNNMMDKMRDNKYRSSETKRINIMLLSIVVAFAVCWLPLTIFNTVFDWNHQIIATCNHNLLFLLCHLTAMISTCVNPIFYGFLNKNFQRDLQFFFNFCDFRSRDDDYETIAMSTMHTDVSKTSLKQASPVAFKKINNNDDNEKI
Oxytocin receptor, sequence (P30559 whole entry): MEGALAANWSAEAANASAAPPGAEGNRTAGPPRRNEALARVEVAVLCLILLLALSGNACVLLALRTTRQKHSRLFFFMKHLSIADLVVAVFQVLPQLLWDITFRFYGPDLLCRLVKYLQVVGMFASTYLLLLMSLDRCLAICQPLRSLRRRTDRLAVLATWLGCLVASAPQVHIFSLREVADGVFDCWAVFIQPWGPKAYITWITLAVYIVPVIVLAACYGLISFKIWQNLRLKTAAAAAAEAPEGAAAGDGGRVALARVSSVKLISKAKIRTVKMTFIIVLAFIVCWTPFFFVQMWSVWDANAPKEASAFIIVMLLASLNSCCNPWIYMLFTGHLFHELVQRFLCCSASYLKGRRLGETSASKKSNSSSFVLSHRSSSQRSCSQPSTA

Broadly, the IC50 is the concentration at which inhibition is half-maximal. `COc1ncccc1-c1nnn(-c2ccc(Cl)c(Cl)c2)n1`: the half-inhibitory concentration (IC50) in assay [1] and in [2] was > 100 µM (not active) each time.

Broadly, the EC50 is the concentration needed to bring the measured effect to its halfway point. Consider `O=S(=O)(c1cccc(NC(=S)N2CCN(c3cccc(Cl)c3)CC2)c1)C(F)F`, for which the EC50 in [3], in assay [4] and in assay [5] was > 35.4 µM (not active) each time. Moreover, in [6], the CC50 was > 40 µM (active).

Regarding `Oc1ccc(Cl)cc1CNCc1ccc(Cl)nc1`, the results for the half-maximal effective concentration (EC50) in [7] and in assay [8] were 19.5 µM (not active) and 17.5 µM (not active), respectively.

Take `CCOC(=O)c1cc2c(N)c(C(=O)c3ccc(Br)cc3)sc2nc1O`: in assay [9], the half-inhibitory concentration (IC50) is 34 µM (active).

Turning to `CCCN(CC1CC1)c1nc(C)nc(Nc2c(Cl)cc(Cl)cc2Cl)c1Cl`, the AC50 in [10] was 7.94 µM (inconclusive); in [12] it was 12.6 µM (inconclusive); in assay [13], 14.1 µM (inconclusive); in assay [14] it was 31.6 µM (inconclusive); in assay [15], 15.8 µM (inconclusive). For the same compound, the EC50 is 15.2 µM (active) in assay [11], 1.31 µM (active) in assay [16] and 1.39 µM (active) in [17].

Consider `COc1ccc(C(c2cc3c(cc2O)OCO3)N2CCCCC2)c(OC)c1` (configuration not stated), for which the IC50 in assay [18] is > 40 µM (not active).

Turning to `Fc1nc(F)c(F)c(NCCCNc2c(F)c(F)nc(F)c2F)c1F`, in [19], the CC50 is 24 µM (active). Also, the IC50 is > 100 µM (active) in assay [20], 7.19 µM (active) in assay [21] and 26 µM (inactive) in assay [22].
